The record followed here is ChEMBL document CHEMBL3227996, “New bronchodilators. Synthesis and bronchodilating activity of some 3-(alkoxymethyl)-alpha-(N-substituted aminomethyl)-4-hydroxybenzyl alcohols” (1979).

What all share (type): functional
The subject of assay [1] is Cavia porcellus. Kind of assay: Inhibition of histamine-induced asthma-like syndrome in guinea pig assessed as time delay in appearance of anoxia at 1.25 mg/kg, po treated 30 mins before histamine challenge (reference value: 5.08 mins).
The test system of assay [2] is Cavia porcellus. Kind of assay: Inhibition of histamine-induced airway resistance in guinea pig administered intravenously 3 mins before histamine challenge. Particulars: iv.
Assay [3] deals with Cavia porcellus. Kind of assay: Inhibition of histamine-induced asthma-like syndrome in guinea pig assessed as time delay in appearance of coughing at 1.25 mg/kg, po treated 30 mins before histamine challenge (reference value: 6.13 mins).
Assay [4] concerns Cavia porcellus. Kind of assay: Inhibition of histamine-induced asthma-like syndrome in guinea pig assessed as time delay in appearance of coughing at 5 mg/kg, po treated 30 mins before histamine challenge (reference value: 6.13 mins).
Assay [5] relates to Cavia porcellus. Kind of assay: Inhibition of histamine-induced asthma-like syndrome in guinea pig assessed as time delay in appearance of anoxia at 5 mg/kg, po treated 30 mins before histamine challenge (reference value: 5.08 mins).

With `COCc1cc(C(O)CNC(C)Cc2ccc(OC)cc2)ccc1O.O=C(O)/C=C/C(=O)O` (configuration not stated), the Time in the assay on Cavia porcellus [1] is recorded as 19.1 min; in the assay on Cavia porcellus [3], 20 min. In the assay with Cavia porcellus [2], this compound yielded a 50% effective dose (ED50) of 2.75 µg/kg.
As for `CCOCc1cc(C(O)CNC(C)C)ccc1O.Cl` (configuration not stated), the Time is listed as 14.03 min with Cavia porcellus [4] and 9.23 min in the assay with Cavia porcellus [5].
In the case of `COCCOCc1cc(C(O)CNC(C)C)ccc1O.Cl` (configuration not stated), the figures for the Time with Cavia porcellus [4] and with Cavia porcellus [5] were 9.7 min and 8.8 min, respectively.
`COCc1cc(C(O)CNC(C)Cc2ccc(O)cc2)ccc1O.O=C(O)C(=O)O` (configuration not stated): the Time came to 19.97 min with Cavia porcellus [1] and 20 min in the assay on Cavia porcellus [3].
Consider `COCc1cc(C(O)CNC(C)C)ccc1O.Cl` (configuration not stated), for which the Time with Cavia porcellus [4] was 15.25 min; in the assay on Cavia porcellus [5], 10.38 min.
As to `COCc1cc(C(O)CNC(C)(C)C)ccc1O.Cl` (configuration not stated), the Time came to 17.17 min in the assay on Cavia porcellus [1] and 20 min in the assay with Cavia porcellus [3].
Take `COCc1cc(C(O)CNC(C)(C)C)cc(COC)c1O.Cl` (configuration not stated): the Time was found to be 7.35 min in the assay on Cavia porcellus [1] and 7.78 min in the assay on Cavia porcellus [3].
Take `CCOCc1cc(C(O)CNC(C)Cc2ccccc2)ccc1O.Cl` (configuration not stated): the Time worked out at 13.92 min in the assay with Cavia porcellus [4] and 12.57 min in the assay on Cavia porcellus [5].
As to `CC(C)NCC(O)c1ccc(O)c(O)c1` (configuration not stated) [ISOPROTERENOL], the Time in the assay on Cavia porcellus [1] was 6.82 min; in the assay with Cavia porcellus [4] it was 17.67 min; with Cavia porcellus [5] it was 12.71 min; with Cavia porcellus [3], 8.02 min.
Consider `CC(C)(C)NCC(O)c1ccc(O)c(CO)c1` (configuration not stated) [ALBUTEROL], for which the Time in the assay on Cavia porcellus [1] is given as 8.1 min; with Cavia porcellus [4] it was 19.13 min; in the assay with Cavia porcellus [5], 17.22 min; in the assay on Cavia porcellus [3] it was 9.68 min.
Turning to `COCc1cc(C(O)CNC(C)Cc2ccc3c(c2)OCO3)ccc1O.O=C(O)C(=O)O` (configuration not stated), the Time came to 10.43 min in the assay on Cavia porcellus [1] and 12.05 min in the assay on Cavia porcellus [3].
With `CCOCc1cc(C(O)CNC(C)(C)C)ccc1O.Cl` (configuration not stated), the Time was determined as 14.55 min with Cavia porcellus [1] and 14.85 min in the assay with Cavia porcellus [3].
Consider `COCc1cc(C(O)CNC(C)C)cc(COC)c1O.Cl` (configuration not stated), for which the Time in the assay on Cavia porcellus [1] amounted to 10.71 min; with Cavia porcellus [3], 11 min.
As to `COCc1cc(C(O)CNC(C)(C)Cc2ccccc2)ccc1O.Cl` (configuration not stated), the Time in the assay on Cavia porcellus [4] stood at 11.83 min; in the assay with Cavia porcellus [5], 11.35 min.
As for `CCOCc1cc(C(O)CNC(C)(C)Cc2ccccc2)ccc1O.Cl` (configuration not stated), the Time was found to be 16.08 min in the assay with Cavia porcellus [4] and 15.98 min with Cavia porcellus [5].
Taken in the same sequence, the figures for `COCc1cc(C(O)CNC(C)Cc2ccccc2)ccc1O.Cl` (configuration not stated) were 11.65 min and 9.61 min.
On to `CCOCCOCc1cc(C(O)CNC(C)(C)C)ccc1O.Cl` (configuration not stated), for which the Time with Cavia porcellus [1] amounted to 10.58 min; with Cavia porcellus [4], 14.08 min; in the assay with Cavia porcellus [5], 8.97 min; in the assay on Cavia porcellus [3], 11.81 min.
For the compound `CC(C)(C)NCC(O)c1ccc(O)c(COCCO)c1.Cl` (configuration not stated), the Time in the assay on Cavia porcellus [4] was found to be 5.97 min; in the assay with Cavia porcellus [5] it was 4.98 min.
In the case of `COCCOCc1cc(C(O)CNC(C)(C)C)ccc1O.Cl` (configuration not stated), the Time was found to be 6.75 min in the assay on Cavia porcellus [1], 15.18 min in the assay on Cavia porcellus [4], 13.8 min in the assay on Cavia porcellus [5] and 7.88 min with Cavia porcellus [3].
